Holding throughout (test): NCI anticancer screen, dose series, 48 h
The subject of test [1] is NCI/ADR-RES.
For test [2], the system named is A498.
For test [3], the system named is HCT-15.
In test [4] the test system is HCC 2998.
Test [5] has as its system RPMI-8226.
Test [6] deals with SF-268.
Test [7] deals with 786-0.
Test [8] deals with HCT-116.
Test [9] relates to OVCAR-4.
Test [10] deals with SNB-19.
For test [11], the system named is SR.
The test system of test [12] is NCI-H522.
In test [13] the test system is SF-539.
For test [14], the system named is NCI-H23.
Test [15] has as its system MOLT-4.
Test [16] relates to HL-60.
Test [17] has as its system UACC-257.
In test [18] the test system is IGROV-1.
Test [19] concerns K562.
In test [20] the test system is COLO 205.

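1) Cells in 96-well plates. 2) Compound, 48 h, 5 concentrations. 3) Linear interpolation between surrounding doses. 4) Unreached endpoint = highest concentration. GI50 = concentration required for 50% inhibition of growth.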 The source made the active and inactive calls. Rule as the data show it: active = GI50 up to about 1.1 µM and inactive = higher.

Take `CC(C)CC(NC(=O)C(Cc1ccccc1)NC(=O)[C@H]1CC[C@H](NC(=O)C(Cc2ccc(OC(C)(C)C)cc2)NC(=O)OC(C)(C)C)C1)C(N)=O` (stereo not given in full): the GI50 was > 100 µM (inactive) in test [1]; 39.7 µM (inactive) in [2]; 18 µM in test [3]; 14.5 µM (inactive) in [4]; 17.7 µM (inactive) in [5]; 24.6 µM (inactive) in test [6]. In addition, the GI50 is 46.7 µM (inactive) in [7]; 14.7 µM (inactive) in [8]; 29 µM (inactive) in test [9]; 38.4 µM (inactive) in test [10]; 29.9 µM (inactive) in [11]; 14.4 µM (inactive) in [12]. Moreover, the GI50 in [13] is 14.4 µM (inactive); in [14], 16.2 µM (inactive); in test [15], 12.5 µM (inactive); in test [16] it was 67 µM (inactive); in [17] it was 19.7 µM (inactive); in test [18], 23.1 µM (inactive). The GI50 is 17 µM (inactive) in [19] and 18.8 µM (inactive) in [20].
In the case of `O=[N+]([O-])c1ccc(N/N=C/CC(O)(C(F)(F)F)C(F)(F)F)c([N+](=O)[O-])c1`, the GI50 in test [1] was 3.68 µM (inactive); in test [2], 3.78 µM (inactive); in test [3], 3.01 µM; in [4] it was 5.32 µM (inactive); in test [5], 2.76 µM (inactive); in test [6], 4.26 µM (inactive). The GI50 is 5.04 µM (inactive) in [7]; 3.03 µM (inactive) in test [8]; 4.99 µM (inactive) in [9]; 5.04 µM (inactive) in test [10]; 5.06 µM (inactive) in test [11]; 3.21 µM (inactive) in [12]. Besides, the GI50 is 2.3 µM (inactive) in [13]; 2.77 µM (inactive) in test [14]; 3.78 µM (inactive) in [15]; 4.07 µM (inactive) in test [16]; 3.65 µM (inactive) in [17]; 4.47 µM (inactive) in test [18]. In addition, the values for the GI50 in test [19] and in [20] were 3.55 µM (inactive) and 3.67 µM (inactive), respectively.
Turning to `CC1=NNC(=S)NCCCN2CCN(CCCNC(=S)NN=C(C)C=NNC(=S)NCCCN3CCN(CCCNC(=S)NN=C1)CC3)CC2`, the GI50 was > 100 µM (inactive) in test [1]; > 100 µM (inactive) in test [2]; above 100 µM in test [3]; > 100 µM (inactive) in test [4]; > 100 µM (inactive) in test [5]; > 100 µM (inactive) in [6]. Also, the GI50 in test [7], in test [8], in test [9], in test [10], in test [11] and in test [12] was > 100 µM (inactive) throughout. For the same molecule, the GI50 in [13], in [14], in [15], in [16], in test [17] and in [18] was > 100 µM (inactive) each time. Moreover, the GI50 in test [19] and in [20] was > 100 µM (inactive) throughout.
Turning to `O=[N+]([O-])c1c(F)c(F)c2c(c1F)N(CCCCCl)c1ccccc1S2`, the GI50 in test [1] was 17.5 µM (inactive); in test [2], 8.81 µM (inactive); in test [3] it was 1.6 µM; in test [4] it was 2.86 µM (inactive); in test [5] it was 3.47 µM (inactive); in [6], 6.04 µM (inactive). In addition, the GI50 in [7] was 9.02 µM (inactive); in test [8], 5.05 µM (inactive); in [9], 8.57 µM (inactive); in [10], 7.69 µM (inactive); in [11], 1.89 µM (inactive); in test [12] it was 4.9 µM (inactive). The GI50 in [13] was 17.2 µM (inactive); in test [14], 7.91 µM (inactive); in [15] it was 2.77 µM (inactive); in test [16], 2.44 µM (inactive); in test [17], 11.4 µM (inactive); in [18], 2.27 µM (inactive). Moreover, the GI50 is 2.05 µM (inactive) in test [19] and 14.4 µM (inactive) in [20].
On to `COC(=O)CCc1cc(OC)c2c(c1)[C@H](C(=O)OC)[C@@H](c1ccc(O)c(OC)c1)O2`, for which the GI50 in test [1] was 40.9 µM (inactive); in [2] it was 31.5 µM (inactive); in [3], 32.7 µM; in test [4], 21.4 µM (inactive); in [5], 17.6 µM (inactive); in [6], 52.6 µM (inactive). For the same molecule, the GI50 in test [7] is 46.3 µM (inactive); in test [8], 35.5 µM (inactive); in test [9] it was 84.1 µM (inactive); in [10], 51.9 µM (inactive); in test [11], 1.43 µM (inactive); in test [12], 38.3 µM (inactive). Also, the GI50 in test [13] was 48.2 µM (inactive); in [14], 38.5 µM (inactive); in [15], 24.7 µM (inactive); in test [16] it was 15.5 µM (inactive); in [17], > 100 µM (inactive); in test [18], 61.8 µM (inactive). The results for the GI50 in [19] and in test [20] were 13.4 µM (inactive) and 41.2 µM (inactive), respectively.
Take `Cn1c(=O)c2c(nc3[nH]c(=O)c(Br)cn32)n(C)c1=O`: the GI50 is > 100 µM (inactive) in test [1]; > 100 µM (inactive) in test [2]; above 100 µM in test [3]; > 100 µM (inactive) in test [4]; > 100 µM (inactive) in test [5]; > 100 µM (inactive) in test [6]. Also, the GI50 in test [7], in test [8], in [9], in [10], in [11] and in test [12] was > 100 µM (inactive) in each case. Moreover, the GI50 in test [13], in test [14], in [15], in [16], in test [17] and in test [18] was > 100 µM (inactive) each time. The GI50 in [19] and in [20] was > 100 µM (inactive) throughout.
In the case of `COC(=O)C1(Cc2ccccc2)Cc2c(C)ccc(C)c2C1=O` (stereo not given), the GI50 in [1] is 28.1 µM (inactive); in test [2], 46.8 µM (inactive); in [3], 31 µM; in test [4], 28 µM (inactive); in test [5], 29 µM (inactive); in test [6], 39.6 µM (inactive). The GI50 in test [7] was 37.5 µM (inactive); in test [8], 19.8 µM (inactive); in [9] it was 32.4 µM (inactive); in test [10], 48.4 µM (inactive); in test [11], 23.9 µM (inactive); in [12], 19.2 µM (inactive). Also, the GI50 in [13] was 39.9 µM (inactive); in [14], 24.2 µM (inactive); in [15] it was 18.7 µM (inactive); in test [16], 20.2 µM (inactive); in [17] it was 25.8 µM (inactive); in test [18], 36.7 µM (inactive). Also, the values for the GI50 in [19] and in test [20] were 30.5 µM (inactive) and 12.4 µM (inactive), respectively.
On to `C1CSC(Sc2nc(SC3=NCCS3)nc(SC3=NCCS3)n2)=N1`, for which the GI50 in test [1] was > 100 µM (inactive); in test [2] it was > 100 µM (inactive); in [3], above 100 µM; in test [4], > 100 µM (inactive); in [5], > 100 µM (inactive); in test [6] it was > 100 µM (inactive). Also, the GI50 in [7] is > 100 µM (inactive); in test [8], > 100 µM (inactive); in test [9], > 100 µM (inactive); in test [10], > 100 µM (inactive); in test [11] it was > 100 µM (inactive); in test [12] it was 35.5 µM (inactive). Moreover, the GI50 in test [13], in test [14], in [15], in [16], in test [17] and in test [18] was > 100 µM (inactive) throughout. Moreover, the GI50 in test [19] and in test [20] was > 100 µM (inactive) each time.
On to `C/C(=N\NC(N)=O)C(CN1CCOCC1)C(c1ccccc1)c1c(O)c2ccccc2oc1=O` (stereo not given), for which the GI50 in [1] is > 100 µM (inactive); in [2] it was 8.63 µM (inactive); in test [3], above 100 µM; in test [4], > 100 µM (inactive); in [5], > 100 µM (inactive); in [6] it was > 100 µM (inactive). Also, the GI50 in test [7], in [8], in test [9], in [10], in test [11] and in [12] was > 100 µM (inactive) throughout. The GI50 in [13], in test [14], in test [15], in test [16], in [17] and in test [18] was > 100 µM (inactive) throughout. Also, the GI50 in [19] and in [20] was > 100 µM (inactive) in each case.
`Cc1cc(S(=O)(=O)Nc2nc(Nc3ccc(Cl)cc3)n[nH]2)c(S)cc1Cl`: the GI50 in [1] is > 100 µM (inactive); in test [2] it was > 100 µM (inactive); in test [3], 4.53 µM; in [4] it was > 100 µM (inactive); in [5], > 100 µM (inactive); in test [6] it was 75.5 µM (inactive). In addition, the GI50 in test [7] is > 100 µM (inactive); in test [8], > 100 µM (inactive); in test [9] it was > 100 µM (inactive); in test [10], 80.9 µM (inactive); in test [11] it was > 100 µM (inactive); in test [12] it was 70.5 µM (inactive). The GI50 in test [13] was > 100 µM (inactive); in test [14], 82.8 µM (inactive); in test [15], > 100 µM (inactive); in test [16] it was > 100 µM (inactive); in test [17] it was > 100 µM (inactive); in test [18] it was 70.5 µM (inactive). Further, the figures for the GI50 in test [19] and in test [20] were > 100 µM (inactive) and 79.3 µM (inactive), respectively.

Source of the values: ChEMBL document CHEMBL1201862, “PubChem BioAssay data set” (2004).
